Earlier results as cited in PMC3159814 (Bioorganic & medicinal chemistry letters, 2011).

Test system: GnRH receptor

In the case of “1,4,7,10-tetraazacyclododecane-1,4,7,10-tetraacetic acid (DOTA)-Ahx-(D-Lys^6-GnRH1) [DOTA-Ahx-(D-Lys^6-GnRH1)]”, the “GnRH receptor binding affinity” value is listed as 36.1 nM.
